The values below come from patent US8546582B2, “Sulfenamide, vulcanization accelerator containing the sulfenamide for rubber, and process for producing the vulcanization accelerator” (Ouchi Shinko Chemical Industrial Co., Ltd., priority 2007, dated 2013).

Series [1] concerns carp. The experiment in a line: test on the degree of bioconcentration of a chemical substance in the body of fish and shellfish. Format: in vivo. The following applies: for Concentration ratio (times), average / Concentration ratio (times): carp; for Concentration ratio (times): single values. How it is done: For BEBS synthesized in Example 2, a test on the degree of bioconcentration of a chemical substance in the body of fish and shellfish was carried out according to “Shinki Kagaku Busshitsu To Nikakaru Shiken No Hoho Nitsuite (Circular on Test Methods of New Chemical Substances)” (Yakushokuhatsu No. 1121002 dated Nov. 21, 2003, Seikyoku No. 2 dated on Nov. 13, 2003, Kanhokihatsu No. 03121002).
Test bioconcentration: First bioconcentration area 1 μg/L • Second bioconcentration area 0.1 μg/L
Exposure duration: 22 days
Exposure method: Continuous flow-through
Analytical method: High-performance liquid chromatography

Series [2] can be described thus: 1-octanol/water distribution coefficient by high-performance liquid chromatography (JIS Z7260-117). Conditions: HPLC. It counts as physicochemical. How it is done:
For N-methyl-N-t-butylbenzothiazole-2-sulfenamide (BMBS) synthesized in Example 1, N-ethyl-N-t-butylbenzothiazole-2-sulfenamide (BEBS) synthesized in Example 2, N-n-propyl-N-t-butylbenzothiazole-2-sulfenamide (BPBS) synthesized in Example 3, N-n-butyl-N-t-butylbenzothiazole-2-sulfenamide (BBBS) synthesized in Example 4, and N,N-dicyclohexylbenzothiazole-2-sulfenamide (DCBS) which is a conventional compound, the 1-octanol/water distribution coefficient was measured by high-performance liquid chromatography according to JIS Z7260-117.

Series [3] has as its system fish and shellfish. The following applies: Official Bulletin of Economy, Trade and Industry, Dec. 22, 2005; cited from earlier work.
The test system of series [4] is microorganisms. The following applies: safety checks of existing chemical substances; cited from earlier work.
For series [5] the following is noted: stated in TRGS552 (non-patent document 3); cited from earlier work.
The mark [6] stands for this setting: first concentration area 1 μg/L, after 14 days.
[7] abbreviates: first concentration area 1 μg/L, after 22 days.
The mark [8] stands for this setting: second concentration area 0.1 μg/L, after 14 days.
[9] abbreviates: second concentration area 0.1 μg/L, after 22 days.

Several values for one entry are separate records, joined by “and”; a condition that tells them apart may be missing. Equal values may be shown once.

Broadly, the melting point is the temperature, or range, at which the solid turns liquid. The compound `CCCCN(Sc1nc2ccccc2s1)C(C)(C)C` [BBBS, N-n-butyl-N-t-butylbenzothiazole-2-sulfenamide] showed a melting point of 55 to 56 °C.

Consider `CCN(Sc1nc2ccccc2s1)C(C)(C)C` [BEBS, N-ethyl-N-t-butylbenzothiazole-2-sulfenamide], for which the “Concentration ratio (times), average” value in series [1] (setting [6]) is reported as 180 times; in series [1] (setting [7]), 170 times; in series [1] (setting [8]), 180 times; in series [1] (setting [9]), 160 times. Further, the “Concentration ratio (times)” value is 120 times and 240 times in series [1] (setting [6]); 180 times and 170 times in series [1] (setting [7]); 180 times and 190 times in series [1] (setting [8]); 180 times and 130 times in series [1] (setting [9]). In series [1] (preliminary test, in 22 days), the bioaccumulation or bioconcentration is on record as 180 times.

Regarding `CN(Sc1nc2ccccc2s1)C(C)(C)C` [BMBS, N-methyl-N-t-butyl benzothiazole-2-sulfenamide], the logPow in series [2] came out at 4.5.

In the case of `CCCN(Sc1nc2ccccc2s1)C(C)(C)C` [BPBS, N-n-propyl-N-t-butylbenzothiazole-2-sulfenamide], the melting point is 55 to 56 °C.

Turning to `c1ccc2sc(SN(C3CCCCC3)C3CCCCC3)nc2c1` [DCBS, N,N-dicyclohexylbenzothiazole-2-sulfenamide], the chromatographic logP in series [2] (read-out: logPow) is 7.4. In addition, the “concentration ratio (BCFSS)” value in series [3] was 6000 times. Moreover, the degradability entry in series [4] was “hardly degradable”.

Turning to `CCN(N=O)C(C)(C)C` [N-nitroso-N-ethyl-t-butylamine], the carcinogenicity result in series [5] was “not carcinogenic”.

Take `CN(N=O)C(C)(C)C` [N-nitroso-N-methyl-t-butylamine]: the carcinogenicity result in series [5] is given as “not carcinogenic”.

With `CCCCN(N=O)C(C)(C)C` [N-nitroso-N-n-butyl-t-butylamine], the carcinogenicity result in series [5] is “not carcinogenic”.

As for `O=NN(C1CCCCC1)C1CCCCC1` [N-nitrosodicyclohexylamine], the carcinogenicity entry in series [5] is recorded as “not carcinogenic”.
